Measurements reported in ChEMBL document CHEMBL1201862, “PubChem BioAssay data set” (2004).
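Cells were grown in 96-well plates and exposed to each compound for 48 hours at five concentrations; endpoints were interpolated linearly between bracketing concentrations, or set to the highest concentration if not reached. Abbreviation: GI50, concentration required for 50% inhibition of growth.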 Active and inactive are the calls of the source. Cut-off read from the data, not from the text of the source: active = GI50 up to about 1.1 µM and inactive = higher.

Columns and labels:
Assay in all cases: NCI-60 cell line screen, 48 h
786-0 = system: 786-0
A549 = system: A549
ACHN = system: ACHN
COLO 205 = system: COLO 205
HCT-116 = system: HCT-116
HL-60 = system: HL-60
HOP-92 = system: HOP-92
IGROV-1 = system: IGROV-1
NCI-H226 = system: NCI-H226
NCI-H23 = system: NCI-H23
NCI-H522 = system: NCI-H522
OVCAR-3 = system: OVCAR-3
RPMI-8226 = system: RPMI-8226
SF-539 = system: SF-539
SK-MEL-5 = system: SK-MEL-5
SK-OV-3 = system: SK-OV-3
SNB-75 = system: SNB-75
SR = system: SR
CAKI-1 = system: CAKI-1

SMILES | GI50 (786-0) | GI50 (A549) | GI50 (ACHN) | GI50 (COLO 205) | GI50 (HCT-116) | GI50 (HL-60) | GI50 (HOP-92) | GI50 (IGROV-1) | GI50 (NCI-H226) | GI50 (NCI-H23) | GI50 (NCI-H522) | GI50 (OVCAR-3) | GI50 (RPMI-8226) | GI50 (SF-539) | GI50 (SK-MEL-5) | GI50 (SK-OV-3) | GI50 (SNB-75) | GI50 (SR) | GI50 (CAKI-1)
COc1ccc(-c2cc(-c3ccccc3)nc(N)n2)c(O)c1 | > 100 µM (inactive) | 12.8 µM (inactive) | 21.1 µM (inactive) | > 100 µM (inactive) | > 100 µM (inactive) | 2.02 µM (inactive) | > 43 µM (inactive) | 10.6 µM (inactive) | > 100 µM (inactive) | > 100 µM (inactive) | 2.78 µM (inactive) | > 49.5 µM (inactive) | 2.31 µM (inactive) | > 100 µM (inactive) | 7.16 µM (inactive) | 7 µM (inactive) | 28.8 µM (inactive) | 4.3 µM (inactive) | 
NC(=O)c1ncn(CCN2CCN(C(=O)NCCCCCCNC(=O)N3CCN(CCn4cnc(C(N)=O)c4N)CC3)CC2)c1N | > 100 µM (inactive) | > 100 µM (inactive) | > 100 µM (inactive) | > 100 µM (inactive) | > 100 µM (inactive) | > 100 µM (inactive) | > 100 µM (inactive) | > 100 µM (inactive) | > 100 µM (inactive) | > 100 µM (inactive) |  | > 100 µM (inactive) | > 100 µM (inactive) | > 100 µM (inactive) | > 100 µM (inactive) | > 100 µM (inactive) | > 100 µM (inactive) | > 100 µM (inactive) | > 100 µM (inactive)
O=C1C(=O)N(c2ccc(Cl)c(Cl)c2)C(=O)C(=O)C1c1nc2ccccc2s1 | > 100 µM (inactive) | > 100 µM (inactive) | > 100 µM (inactive) | > 100 µM (inactive) | > 100 µM (inactive) |  | 9.55 µM (inactive) | > 100 µM (inactive) | 88.7 µM (inactive) | > 100 µM (inactive) | > 100 µM (inactive) | > 100 µM (inactive) | > 100 µM (inactive) | > 100 µM (inactive) | > 100 µM (inactive) | > 100 µM (inactive) | > 100 µM (inactive) | > 100 µM (inactive) | > 100 µM (inactive)
O=C([O-])Cc1ccccc1.[Na+] [SODIUM PHENYLACETATE] | 1070 µM (inactive) | 1410 µM (inactive) | 1180 µM (inactive) | 1340 µM (inactive) |  |  | 359 µM (inactive) | 597 µM (inactive) | 447 µM (inactive) | > 2000 µM (inactive) | 618 µM (inactive) | 550 µM (inactive) | 413 µM (inactive) | > 2000 µM (inactive) | 869 µM (inactive) | > 2000 µM (inactive) | 776 µM (inactive) | 200 µM (inactive) | 
C=C1CCC2C(C)(CO)C(O)CCC2(C)C1CC(O)/C(=C/CO)C(=O)O (stereo not drawn) | > 100 µM (inactive) | > 100 µM (inactive) | > 100 µM (inactive) | > 100 µM (inactive) | > 100 µM (inactive) | > 100 µM (inactive) | > 100 µM (inactive) | > 100 µM (inactive) |  |  | > 100 µM (inactive) |  | > 100 µM (inactive) | > 100 µM (inactive) | > 100 µM (inactive) | > 100 µM (inactive) | > 100 µM (inactive) | > 100 µM (inactive) | > 100 µM (inactive)
Cc1cc(Cl)ccc1NC(=O)CC1SC(Nc2ccccc2Cl)=NC1=O (stereo not drawn) | 53.8 µM (inactive) | 36.3 µM (inactive) | 43.3 µM (inactive) | 19.2 µM (inactive) | 30.3 µM (inactive) | 15.9 µM (inactive) | 48.9 µM (inactive) | 49.5 µM (inactive) | 24.2 µM (inactive) | 38.6 µM (inactive) | 29.8 µM (inactive) | 28.3 µM (inactive) | 23.2 µM (inactive) | 20.3 µM (inactive) | 36.6 µM (inactive) | 49.3 µM (inactive) | 38.7 µM (inactive) | 20.6 µM (inactive) | 41.7 µM (inactive)
CN(C)CC1CCC/C1=N/OC(=O)c1ccccc1 (stereo not drawn) | > 100 µM (inactive) |  | > 100 µM (inactive) | > 100 µM (inactive) | > 100 µM (inactive) |  | > 100 µM (inactive) | > 100 µM (inactive) | > 100 µM (inactive) | > 100 µM (inactive) | > 100 µM (inactive) | > 100 µM (inactive) | > 100 µM (inactive) | > 100 µM (inactive) | > 100 µM (inactive) | > 100 µM (inactive) | > 100 µM (inactive) | > 100 µM (inactive) | > 100 µM (inactive)
CN1C(c2ccccc2)CC(=Nc2ccccc2)CC1c1ccccc1 (stereo not drawn) | 14.2 µM (inactive) | 11.5 µM (inactive) |  | 10.7 µM (inactive) | 4.91 µM (inactive) | 2.61 µM (inactive) | 7.78 µM (inactive) | 12.6 µM (inactive) | 11.7 µM (inactive) | 15.6 µM (inactive) | 4.65 µM (inactive) | 8.93 µM (inactive) | 2.98 µM (inactive) |  | 10.9 µM (inactive) | 2.95 µM (inactive) | 16.7 µM (inactive) | 10.9 µM (inactive) | 17.5 µM (inactive)
COc1cccc(-n2c3nc(=O)n(C)c(=O)c-3nc3ccccc32)c1 | 24.3 µM (inactive) | 12.6 µM (inactive) | 3.18 µM (inactive) | 3.5 µM (inactive) | 23.1 µM (inactive) | 6.01 µM (inactive) | 26 µM (inactive) | 18.7 µM (inactive) | 17.7 µM (inactive) | 15.7 µM (inactive) | 29.3 µM (inactive) | 2.69 µM (inactive) | 12.5 µM (inactive) | 12.4 µM (inactive) | 3.24 µM (inactive) | > 100 µM (inactive) | 19.6 µM (inactive) |  | 16.2 µM (inactive)
CC12O[Te]34OC1(C)C(C)(O3)C2(C)O4 | 15.3 µM (inactive) | 12.3 µM (inactive) | 14.8 µM (inactive) | 16.9 µM (inactive) | 11.9 µM (inactive) |  |  | 11.9 µM (inactive) | 16.9 µM (inactive) | 16.4 µM (inactive) | 11.8 µM (inactive) | 17.9 µM (inactive) |  | 15.9 µM (inactive) |  | 22 µM (inactive) | > 8.75 µM (inactive) | 7.66 µM (inactive) | 9.71 µM (inactive)
CCc1ccccc1NC(=O)C1=C(C)NC(C)=C(C(=O)Nc2ccccc2CC)C1c1ccccc1Cl | > 100 µM (inactive) | > 100 µM (inactive) | 47.4 µM (inactive) | > 100 µM (inactive) | > 100 µM (inactive) | 64.6 µM (inactive) | 57.1 µM (inactive) | > 100 µM (inactive) | > 100 µM (inactive) | > 100 µM (inactive) | 69.5 µM (inactive) | > 100 µM (inactive) | > 100 µM (inactive) | > 100 µM (inactive) | > 100 µM (inactive) | > 100 µM (inactive) | 71.6 µM (inactive) |  | > 100 µM (inactive)
C/C=C/CC(S(=O)(=O)c1ccccc1)S(=O)(=O)c1ccccc1 |  | > 100 µM (inactive) | > 100 µM (inactive) | > 100 µM (inactive) | > 100 µM (inactive) | > 100 µM (inactive) | > 100 µM (inactive) | > 100 µM (inactive) | > 100 µM (inactive) | > 100 µM (inactive) | 12 µM (inactive) | > 100 µM (inactive) | 95.3 µM (inactive) | > 100 µM (inactive) | > 100 µM (inactive) | > 100 µM (inactive) | 32.7 µM (inactive) | > 100 µM (inactive) | 
O=C(CCN1CCOCC1)C(=Cc1ccccc1)C(=O)CCN1CCOCC1 |  | 18.1 µM (inactive) |  | 2.51 µM (inactive) | 2.29 µM (inactive) | 1.53 µM (inactive) | 2.11 µM (inactive) | 6.78 µM (inactive) | 14.6 µM (inactive) | 2.3 µM (inactive) | 1.5 µM (inactive) | 3.97 µM (inactive) | 1.04 µM (active) | 3.44 µM (inactive) | 7.08 µM (inactive) | 16.6 µM (inactive) | 15.5 µM (inactive) |  | 3.99 µM (inactive)
CC1=NN2C(c3ccc([N+](=O)[O-])cc3)=CSC2=NC(C)(C)C1 | > 100 µM (inactive) | > 100 µM (inactive) | > 100 µM (inactive) | > 100 µM (inactive) | > 100 µM (inactive) | > 100 µM (inactive) | 79.6 µM (inactive) | > 100 µM (inactive) | > 100 µM (inactive) | > 100 µM (inactive) | > 100 µM (inactive) | > 100 µM (inactive) | > 100 µM (inactive) | > 100 µM (inactive) | > 100 µM (inactive) | > 100 µM (inactive) | > 100 µM (inactive) | > 100 µM (inactive) | 
CCOc1ccccc1NC(=O)CC1Sc2ccccc2NC1=O (stereo not drawn) | > 100 µM (inactive) | 82.2 µM (inactive) | 75.9 µM (inactive) | 33.3 µM (inactive) | > 100 µM (inactive) | 23.9 µM (inactive) | 18.2 µM (inactive) | 45.5 µM (inactive) | > 100 µM (inactive) | 61.2 µM (inactive) | 27.4 µM (inactive) | 37.5 µM (inactive) |  | 62.7 µM (inactive) | 26.1 µM (inactive) | > 100 µM (inactive) | 31.2 µM (inactive) | 21 µM (inactive) | 95.7 µM (inactive)
C/C(=N\Nc1nnc(S)n1N)c1c(O)cc(C)oc1=O | > 100 µM (inactive) | > 100 µM (inactive) | > 100 µM (inactive) |  | > 100 µM (inactive) | > 100 µM (inactive) | > 100 µM (inactive) |  | > 100 µM (inactive) | > 100 µM (inactive) | > 100 µM (inactive) |  |  | > 100 µM (inactive) |  | > 100 µM (inactive) | > 100 µM (inactive) | > 100 µM (inactive) | > 100 µM (inactive)
